Assay results: PubChem BioAssay AID248 (DTP/NCI, 2004)
“And” between values parts separate entries of the source, which are not always exact repeats. Equal entries are not always repeated. Toxic doses and inconclusive results are not listed. Rule as the data show it: active = T/C of 150% or more; inactive = T/C below 125%.

Tested on: L1210 leukemia ip in BDF1 mice, survival T/C
Assay: NCI In Vivo Anticancer Drug Screen. Data for tumor model L1210 Leukemia (intraperitoneal) in B6D2F1 (BDF1) mice
Conditions: endpoint: mean survival time, higher = longer survival
Outline: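 Tumor cells were implanted, animals were treated, and survival was followed. The result divides the treated measurement by the vehicle-control measurement.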

[1] = dose: 100.0 mg/kg/injection, schedule: Q01DX009 (ip), vehicle: Klucel (hydroxypropylcellulose) (HPC)
[2] = dose: 200.0 mg/kg/injection, schedule: Q01DX009 (ip), vehicle: Klucel (hydroxypropylcellulose) (HPC)
[3] = dose: 400.0 mg/kg/injection, schedule: Q01DX009 (ip), vehicle: Klucel (hydroxypropylcellulose) (HPC)
[4] = dose: 400.0 mg/kg/injection, schedule: Q01DX001 (ip), vehicle: saline
[5] = dose: 100.0 mg/kg/injection, schedule: Q04DX003 (ip), vehicle: saline with Tween-80
[6] = dose: 200.0 mg/kg/injection, schedule: Q04DX003 (ip), vehicle: saline with Tween-80
[7] = dose: 400.0 mg/kg/injection, schedule: Q04DX003 (ip), vehicle: saline with Tween-80
[8] = dose: 100.0 mg/kg/injection, schedule: Q01DX009 (ip), vehicle: saline sonified
[9] = dose: 100.0 mg/kg/injection, schedule: Q04DX003 (ip), vehicle: saline
[10] = dose: 200.0 mg/kg/injection, schedule: Q01DX009 (ip), vehicle: saline sonified
[11] = dose: 200.0 mg/kg/injection, schedule: Q04DX003 (ip), vehicle: saline
[12] = dose: 400.0 mg/kg/injection, schedule: Q01DX009 (ip), vehicle: saline sonified
[13] = dose: 400.0 mg/kg/injection, schedule: Q04DX003 (ip), vehicle: saline
[14] = dose: 50.0 mg/kg/injection, schedule: Q01DX009 (ip), vehicle: Klucel (hydroxypropylcellulose) (HPC)
[15] = dose: 100.0 mg/kg/injection, schedule: Q04DX003 (ip), vehicle: Klucel (hydroxypropylcellulose) (HPC)
[16] = dose: 200.0 mg/kg/injection, schedule: Q04DX003 (ip), vehicle: Klucel (hydroxypropylcellulose) (HPC)
[17] = dose: 400.0 mg/kg/injection, schedule: Q04DX003 (ip), vehicle: Klucel (hydroxypropylcellulose) (HPC)
[18] = dose: 300.0 mg/kg/injection, schedule: Q01DX001 (ip), vehicle: carboxymethylcellulose (CMC)
[19] = dose: 100.0 mg/kg/injection, schedule: Q01DX009 (ip), vehicle: saline with Tween-80
[20] = dose: 200.0 mg/kg/injection, schedule: Q01DX009 (ip), vehicle: saline with Tween-80
[21] = dose: 100.0 mg/kg/injection, schedule: Q01DX001 (ip), vehicle: saline
[22] = dose: 200.0 mg/kg/injection, schedule: Q01DX001 (ip), vehicle: saline

Measured: T/C

Oc1c(Br)cc(Br)cc1/C=C/NC(=S)NC1CC2CC1C1C=CCC21 (centres undefined)
inactive: [1] 105 % of control | [2] 94 % of control | [3] 97 % of control

CCc1c(Cl)c(C)c(Cl)c(O)c1Cl
inactive: dose: 100.0 mg/kg/injection, schedule: Q04DX003 (ip), vehicle: other 102 % of control | dose: 200.0 mg/kg/injection, schedule: Q04DX003 (ip), vehicle: other 93 % of control

O=c1[nH]cncc1F
inactive: dose: 264.0 mg/kg/injection, schedule: Q01DX001 (ip), vehicle: saline 92 % of control | [4] 100 % of control and 112 % of control

Nc1nc2nn(-c3ccccc3)nc2c(=O)[nH]1
inactive: [5] 100 % of control | [6] 93 % of control | [7] 94 % of control

O=S1(=O)CCOCC1
inactive: [8] 105 % of control | [9] 97 % of control | [10] 97 % of control | [11] 95 % of control | [12] 102 % of control | [13] 105 % of control

O=[N+]([O-])c1ccc(N=N/C(Cc2ccccc2)=N\Nc2ccccc2)cc1
inactive: [14] 90 % of control | [1] 95 % of control | [15] 87 % of control | [2] 92 % of control | [16] 100 % of control | [3] 90 % of control | [17] 101 % of control

CCCCCCCCCC(=O)N1C(C)CCC1C (centres undefined)
inactive: dose: 100.0 mg/kg/injection, schedule: Q04DX002 (ip), vehicle: other 103 % of control | dose: 200.0 mg/kg/injection, schedule: Q04DX002 (ip), vehicle: other 107 % of control

NC(=O)CCCN1CCCC1=O
inactive: dose: 100.0 mg/kg/injection, schedule: Q01DX009 (ip), vehicle: saline 100 % of control | [9] 100 % of control | dose: 200.0 mg/kg/injection, schedule: Q01DX009 (ip), vehicle: saline 111 % of control | [11] 101 % of control | dose: 400.0 mg/kg/injection, schedule: Q01DX009 (ip), vehicle: saline 110 % of control | [13] 97 % of control

COCC1OC(n2cc(C)c(=O)n(C)c2=O)CC1OC (centres undefined)
inactive: dose: 50.0 mg/kg/injection, schedule: Q01DX005 (ip), vehicle: saline 102 % of control | dose: 100.0 mg/kg/injection, schedule: Q01DX005 (ip), vehicle: saline 98 % of control | dose: 200.0 mg/kg/injection, schedule: Q01DX005 (ip), vehicle: saline 100 % of control

CCCCN(CCCC)c1ccc(N=C(C#N)c2ccc(N(CCCC)CCCC)cc2)cc1
inactive: [1] 96 % of control | [2] 96 % of control | [3] 105 % of control

Nc1ncnc2sc(SCc3ccccc3)nc12
inactive: [5] 107 % of control | [6] 102 % of control | [7] 100 % of control

O=NN(C(=O)NC1CCCCC1)C1CCCCC1
inactive: dose: 100.0 mg/kg/injection, schedule: Q01DX001 (ip), vehicle: carboxymethylcellulose (CMC) 106 % of control | dose: 200.0 mg/kg/injection, schedule: Q01DX001 (ip), vehicle: carboxymethylcellulose (CMC) 106 % of control | [18] 106 % of control | dose: 400.0 mg/kg/injection, schedule: Q01DX001 (ip), vehicle: carboxymethylcellulose (CMC) 109 % of control | dose: 500.0 mg/kg/injection, schedule: Q01DX001 (ip), vehicle: carboxymethylcellulose (CMC) 112 % of control

Cc1cccc(NNC(=S)Nc2ccccc2)c1
inactive: [19] 97 % of control | [20] 97 % of control | dose: 400.0 mg/kg/injection, schedule: Q01DX009 (ip), vehicle: saline with Tween-80 94 % of control

C=CCSC(C)CC (centres undefined)
inactive: dose: 50.0 mg/kg/injection, schedule: Q01DX009 (ip), vehicle: saline with Tween-80 95 % of control | [19] 101 % of control | [5] 96 % of control | [20] 92 % of control | [6] 96 % of control

COc1cc(C(=O)NCc2cccs2)cc(OC)c1OC
inactive: dose: 100.0 mg/kg/injection, schedule: Q04DX002 (ip), vehicle: Klucel (hydroxypropylcellulose) (HPC) 102 % of control | dose: 200.0 mg/kg/injection, schedule: Q04DX002 (ip), vehicle: Klucel (hydroxypropylcellulose) (HPC) 94 % of control | dose: 400.0 mg/kg/injection, schedule: Q04DX002 (ip), vehicle: Klucel (hydroxypropylcellulose) (HPC) 94 % of control

COC(=O)/C=C(\C(=O)OC)c1c(-c2ccccc2)[nH]c2ccccc12
inactive: dose: 75.0 mg/kg/injection, schedule: Q01DX001 (ip), vehicle: carboxymethylcellulose (CMC) 92 % of control | dose: 150.0 mg/kg/injection, schedule: Q01DX001 (ip), vehicle: carboxymethylcellulose (CMC) 89 % of control | [18] 94 % of control

CC(C)(C)CC(C)(C)c1ccc(OCCOc2ccc(C(N)=O)cc2[N+](=O)[O-])cc1
inactive: [9] 94 % of control | [11] 105 % of control | [13] 97 % of control

O=Cc1cc(O)c(O)c(O)c1
inactive: dose: 50.0 mg/kg/injection, schedule: Q01DX001 (ip), vehicle: other 103 % of control | dose: 100.0 mg/kg/injection, schedule: Q01DX001 (ip), vehicle: other 101 % of control | dose: 200.0 mg/kg/injection, schedule: Q01DX001 (ip), vehicle: other 101 % of control | dose: 400.0 mg/kg/injection, schedule: Q01DX001 (ip), vehicle: other 104 % of control

COc1ccc(C(C)=O)cc1OC
inactive: [8] 92 % of control | [10] 88 % of control | [12] 100 % of control

c1ccc2[nH]c(C(=C(c3nc4ccccc4[nH]3)c3nc4ccccc4[nH]3)c3nc4ccccc4[nH]3)nc2c1
inactive: dose: 100.0 mg/kg/injection, schedule: Q01DX001 (ip), vehicle: Klucel (hydroxypropylcellulose) (HPC) 87 % of control | [15] 97 % of control | dose: 200.0 mg/kg/injection, schedule: Q01DX001 (ip), vehicle: Klucel (hydroxypropylcellulose) (HPC) 87 % of control | [16] 112 % of control | [17] 90 % of control

Cc1cc(=O)[nH]c(O)c1C(=O)CC(=O)c1ccccc1
inactive: [21] 97 % of control | [22] 100 % of control

CC1(C)OC(=O)CC1c1ccc(Cl)cc1 (centres undefined)
inactive: [21] 98 % of control | [22] 93 % of control | [4] 106 % of control

O=C(O)CSC(SCC(=O)O)c1ccc(Cl)cc1Cl
inactive: dose: 100.0 mg/kg/injection, schedule: Q04DX002 (ip), vehicle: saline 94 % of control | dose: 200.0 mg/kg/injection, schedule: Q04DX002 (ip), vehicle: saline 98 % of control | dose: 400.0 mg/kg/injection, schedule: Q04DX002 (ip), vehicle: saline 119 % of control

O=C1C=C(O)C(c2ccccc2)=CC1=O
inactive: dose: 100.0 mg/kg/injection, schedule: Q01DX001 (ip), vehicle: water 104 % of control | dose: 200.0 mg/kg/injection, schedule: Q01DX001 (ip), vehicle: water 119 % of control

C=C(Br)CNC(N)=S
inactive: [14] 96 % of control | [1] 100 % of control | [15] 94 % of control | [2] 102 % of control | [16] 95 % of control
